Measured values as given in patent US20100167335A1, “METHODS FOR DIAGNOSING AND TREATING ALLERGIES” (The Research Foundation of State University of New York, priority 2008, published 2010).

What was measured:
Assay type in all cases: cell-based, human
[1] = system: IL-4 in PBMC culture from serum IgE+ allergic asthmatics; assay: IL-4 release by PBMC cultures infected with C. pneumoniae MOI 0.1 (Example 3)
Method: (§1) Peripheral blood (15 mL total) was obtained from patients and controls in ethylenediaminotetraacetic (EDTA) tubes. PBMC were isolated from whole blood on Ficoll-Paque (GE Healthcare, Sweden) and then washed in RPMI 1640 with 10% fetal bovine serum (FBS), and resuspended in complete RPMI 1640 (c-RPMI). C-RPMI contained RPMI-1640 Medium HEPES Modification supplemented by L-glutamine 5 mM and 10% FBS. Cells were counted and cell viability evaluated with trypan blue dye using a hemocytometer. PBMC (1.5×10^6/mL) were cultured in duplicate in 24 flat bottom well plates (1 ml/well) for up to 12 days in absolute humidification and 5% CO2. Cell viability at 0, 48 and 240 hours was >95%. Following a 2 h incubation to allow adherance PBMC cultures were infected or stimulated in the presence or absence of doxycycline. Doxycycline was reconstituted in a 1× sterile Dulbecco's Phosphate Buffered Saline (PBS).
(§2) PBMC were infected by adding purified EB at a multiplicity of infection (MOI) of 0.01-5 for 1 hour, followed by further incubation in the presence or absence of doxycycline, at 0.01, 0.1, 1.0 μg/mL, for 2 and 10 days p.i. at 37.0° C. in complete medium in a humidified 5% CO2 atmosphere. The time points 2 d (for cytokines) and 10 d p.i. […] Adherent cells were stained with monoclonal genus specific antibodies to confirm and quantify infection with C. pneumoniae at 72 h post infection. Identical volumes of inactivated C. pneumoniae were added in some experiments. C. pneumoniae was inactivated by incubation in a 56° C. water bath for 30 minutes. […]
(§3) In order to characterize the contribution of different T lymphocyte subpopulations to in vitro IgE production, cytokine concentration in infected and uninfected PBMC cultures were analyzed and determined. […]
(§4) To determine the effect of doxycycline on cytokine release by PBMC, doxycycline (0.01-1.0 ng/ml) was added to culture following infection with C. pneumoniae (MOI=0.1). […] In FIG. 8, the data is expressed as a percent control (PBMC day 10 p.i.), 100% is the mean highest response to Cpn; *P<0.05 for doxycycline treated cultures versus no doxycycline.

[2] = system: IFN-γ in PBMC culture from serum IgE+ allergic asthmatics; assay: IFN-γ release by PBMC cultures infected with C. pneumoniae MOI 0.1 (Example 3); details: for IFN-γ level, mean % change: p=NS
Method: as §1, §2, §3, §4

[3] = system: PBMC from allergic asthmatics infected with C. pneumoniae; assay: In vitro IgE release by PBMC cultures infected with C. pneumoniae MOI 0.1, day 10 (Example 3)
Method: as §1, §2
Doxycycline at a concentration of 1 μg/ml was added to PBMC cultures after one hour incubation with C. pneumoniae MOI of 0.1. […] In FIG. 5, the data is expressed as percent control (PBMC day 10 p.i.); the mean change was 48% decrease; p=0.043. In FIG. 6, the data is expressed as mean IgE±SD (ng/ml) in cultures with the following conditions: uninfected cells (Naïve); Cpn MOI=0.1; Cpn MOI=0.1 and doxycycline […]; Cpn MOI of 1.0 and heat inactivated Cpn.

For `C[C@H]1c2cccc(O)c2C(=O)C2=C(O)[C@]3(O)C(=O)C(C(N)=O)=C(O)[C@@H](N(C)C)[C@@H]3[C@@H](O)[C@@H]21` [doxycycline], the “IL-4 level, mean % decrease” value ([1]; doxycycline 1 ng/ml, day 2 (48 h), p=0.018) was 30±14%, the “IL-4 level, mean % change” value ([1]; doxycycline 0.01 μg/ml, p=0.018) was −45±33% and the “IL-4 level, mean % change” value ([1]; doxycycline 0.1 μg/ml, p<0.05) was −60±13%. For the same compound, the “IFN-γ level, mean % decrease” value ([2]; doxycycline 1 ng/ml, day 2 (48 h), p=0.043) was 43±27%, the “IFN-γ level, mean % change” value ([2]; doxycycline 0.01 μg/ml) was 5%±11 and the “IFN-γ level, mean % change” value ([2]; doxycycline 0.1 μg/ml) was −1%±18. For the same compound, the “mean change of IgE response, decrease (FIG. 5, percent control)” value ([3]; FIG. 5, individual subjects n=5, PBMC day 10 p.i., Cpn MOI=0.1, p=0.043) was 48%, the “suppression of IgE responses (average)” value ([3]; doxycycline 1 μg/ml added after 1 h incubation with C. pneumoniae MOI 0.1, day 10, p=0.043) was 42% and the “IgE in PBMC culture” value ([3]; doxycycline 1 μg/ml, C. pneumoniae MOI 0.1, day 10, versus 5.9±6.0 ng/ml without doxycycline) was 3.4 ± 3.9 ng/mL.
